Results as given in patent US6624140B1, “Synthetic peptides with antimicrobial and endotoxin neutralizing properties for management of the sepsis syndrome” (Academisch Ziekenhuis Bij de Universiteit van Amsterdam …, priority 1997, dated 2003).
No end group written: not given here.

Experiments:
[1] = test system: Escherichia coli serotype 0111:B4; experiment: Bactericidal activity in liquid culture, E. coli 0111:B4; type: cell-based; settings: for % bacteria killed: 10^7 E. coli 0111:B4 bacteria/ml LB medium at 37° C., concentration effective dose 3 (M^−6); for effect on cell-density of Gram-negative bacterial cultures: in words
Experimental: (§1) FIGS. 1A and 1B. The effect of synthetic peptides on the survival of E. coli 0111:B4 (panel A) or S. aureus (panel B). Logarithmically growing bacterial cells at a density of 10^7 cells/ml in Luria-Bertani (LB) medium were incubated with synthetic peptides at concentrations of 3, 5 and 7 μg/ml (1, 2 and 3 μM) at 37° C. for 1 h and the residual cell density expressed as a percentage of the value obtained from bacterial cultures without added peptides.
(§2) A peptide encompassing a selected LPS-binding domain from a well characterized human antiendotoxin protein, known as bactericidal/permeability increasing protein (BPI), from amino acids 85 to 102, denoted as BPI(85-102), was included for a direct comparison of the efficacy of the endotoxin-binding domain of a naturally occurring protein and the synthetic peptides of the invention. The amino acid sequence of the BPI(85-102) peptide is:
(§3) The BPI(85-102) reference peptide was synthesized as previously described for peptides of the invention and provided with a C-terminal Cys residue for the purpose of biotinylation as previously described. […] Incubation of various concentrations of the synthetic peptides according to the invention for a limited time period on the survival of both types of bacteria again illustrated their potent anti-microbial activity as opposed to that of the BPI(85-102) peptide (FIG. 1) with the sequence corresponding to that of the potential LPS binding domain of the native BPI protein. This is indicative of a broad specificity of the synthetic peptides, in keeping with the general bactericidal properties of this class of linear amphipathic α-helical peptides. […] The B2 residue in the N-terminal repetitive sequence element in each instance, instead of an aromatic amino acid residue, as specified by the formula of the invention, was replaced with an Ala residue and the hydrophobic (C2)n element made hydrophilic by substitution with Lys and Cys residues.

Staphylococcus aureus = experiment: Bactericidal activity in liquid culture, S. aureus; type: cell-based; settings: for % bacteria killed: 10^7 S. aureus bacteria/ml LB medium 37° C., concentration effective dose 3 (M^−6); for effect on cell-density of Gram-positive bacterial cultures: in words
Experimental: as §1, §2, §3

[2] = test system: IL-6 inducing ability of E. coli 0111:B4 LPS; experiment: Effect of heparin on neutralization of IL-6 inducing ability of LPS; type: cell-based, human; settings: for reduction of LPS neutralizing efficacy by heparin: same heparin concentration (0.4 U/ml)
Experimental: FIG. 10. Effect of heparin on the efficacy of neutralization of the IL-6 inducing ability of E. coli 0111:B4 LPS by synthetic peptide or Polymyxin B in whole blood diluted 1 in 10. Synthetic peptides at concentrations of 2 μg/ml or PmB at 1 μg/ml was pre-incubated for 30 min at 37° C. with E. coli 0111:B4 LPS at 1 ng/ml in RPMI medium containing heparin in the concentration range of 0.1 to 100 I.U/ml. The residual cytokine inducing ability of the treated endotoxin was determined in diluted whole blood containing heparin at 2 IU/ml after incubation for 16 h at 37° C. Each value is the mean of triplicate determinations corrected for background. Controls contained only LPS.
The endotoxin neutralizing activities of the synthetic peptides of the invention were evaluated by investigating the effect on LPS-stimulated release of the pro-inflammatory cytokines, tumor necrosis factor alpha (TNF-α), interleukin-6 (IL-6) or interleukin-8 (IL-8) in a well characterized in vitro human whole blood bioassay system. In one series of experiments, dilutions of E. coli 0111:B4 LPS from 0.2 to 1 ng/ml were pre-incubated with synthetic peptides at 10 μg/ml concentrations in RPMI medium for 30 min at 20° C. and added to diluted whole blood. Cytokine concentrations in the supernatants were determined after further incubation for 16 h at 37° C. in the presence of 5% CO2 by specific and sensitive ELISA kits (CLB, Amsterdam, The Netherlands). In another series of experiments, the effects of synthetic peptides at concentrations of 2,5, 5 and 10 μg/ml on IL-6 induction by 1 ng/ml 0111:B4 LPS was examined after simultaneous addition of synthetic peptide and LPS to diluted whole blood. […] The control peptide BPI(85-102) was ineffective in reducing cytokine production under these conditions even at a 4-fold higher concentration. This probably reflects the differences in binding affinity for Lipid A of BP1 and BP2 compared with the BPI(85-102) peptide of approximately 5 and 10-fold, respectively. An additional factor which may have influenced binding of the control peptide to endotoxin is the presence of heparin employed as an anti-coagulant at a concentration of […] in the assay system. […] On this basis, it was predicted that the extent of reduction of endotoxin neutralizing efficacy would be a function of the differences in affinity between peptides for endotoxin and heparin. To verify this hypothesis, a series of experiments to determine the effect of increasing heparin concentrations on the efficacy of endotoxin neutralization during pre-incubation of synthetic peptide and E. coli 0111:B4 LPS were performed. FIG. 10 illustrates a dose-dependent suppression of endotoxin neutralizing activity of the synthetic peptides by heparin as exemplified by a reduction of IL-6 inhibition. […]

TNF-α production = experiment: TNF-α in whole blood ex vivo after pre-incubation of LPS with peptide; type: cell-based, human; settings: 1 to 10 μg/ml pre-incubated with 1 ng/ml LPS, even at lowest concentration 1 μg/ml, 4 h at 37° C.
Experimental: FIG. 11. Effect of pre-incubation of E. coli 0111:B4 LPS with synthetic peptides or Polymyxin B on TNF-α levels in whole blood ex vivo. The indicated amounts of synthetic, control peptides or PmB were pre-incubated with E. coli 0111:B4 LPS at 1 ng/ml for […] at 23° C., added to whole blood containing heparin at 2 I.U/ml and the TNF-α concentrations determined after incubation for 4 h at 37° C. Each value is the mean of triplicate experiments. Controls only contained LPS.
In addition, the LPS-neutralizing activity of selected synthetic peptides of the invention were compared in a more complex environment of whole blood ex vivo to determine the effect of physiological concentrations of blood components such as plasma proteins, blood cells etc. on the detoxification efficacy. In pre-incubation experiments, concentrations of synthetic peptides, control peptide or PmB from 1 to 10 μg/ml were pre-incubated with 1 ng/ml E. coli 0111:B4 LPS in pyrogen-free saline for 30 min at 23° C., added to venous blood containing heparin at 2 I.U/ml as anti-coagulant and incubated for 4 h at 37° C. TNF-α concentrations were determined in appropriately diluted cell-free supernatants as described before.

Substance | % bacteria killed [1] [%] | effect on cell-density of Gram-negative bacterial cultures [1] | % bacteria killed (Staphylococcus aureus) [%] | effect on cell-density of Gram-positive bacterial cultures (Staphylococcus aureus) | reduction of LPS neutralizing efficacy by heparin [2] [%] | inhibition of TNF-α production (TNF-α production) | molar excess of heparin with respect to LPS for 50% competitive inhibition [2]
Ile-Lys-Ile-Ser-Gly-Lys-Trp-Lys-Ala-Gin-Lys-Arg-Phe-Leu-Lys-Met-Ser-Gly-(Cys) (IKISGKWKAQKRFLKMSGC; listed as Homo sapiens) [BPI(85-102), reference compound] | 31 | slight effect | 0 | no effect | 80 | almost complete inhibition | –
GRLRKKWKAFKKFLKILAC [BP1] | 88 | dose-dependent reduction | 34 | dose-dependent reduction | 75 | almost complete inhibition | –
GKWKLFKKAFKKFLKILAC-OH [BP2, Gly-Lys-Trp-Lys-Leu-Phe-Lys-Lys-Ala-Phe-Lys-Lys-Phe-Leu-Lys-Ile-Leu-Ala-Cys] | – | dose-dependent reduction | – | dose-dependent reduction | – | almost complete inhibition | approximately 10,000 fold
